The structures appear in SMILES notation. pIC50: −log10 of the molar value. A value given as a limit tells only on which side of the number the result lay.

Test [1] addresses T1, murine Aurora Kinase 2 (mAur2) (Mus musculus, UniProt P97477).
T1 construct: N-terminal His-tagged mAur2 (amino acids 98-395; DRT, Protein Sciences); His (N); made in house
T1 sequence (P97477 98-395): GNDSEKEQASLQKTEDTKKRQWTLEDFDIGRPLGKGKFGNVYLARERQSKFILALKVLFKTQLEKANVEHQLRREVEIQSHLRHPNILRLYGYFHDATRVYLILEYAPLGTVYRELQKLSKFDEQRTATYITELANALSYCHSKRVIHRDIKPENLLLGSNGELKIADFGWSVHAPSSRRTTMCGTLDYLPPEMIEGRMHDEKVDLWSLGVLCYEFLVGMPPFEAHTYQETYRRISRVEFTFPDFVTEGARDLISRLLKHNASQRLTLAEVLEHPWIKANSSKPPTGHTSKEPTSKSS
Kind of test: murine Aurora Kinase 2 (mAur2) biochemical Scintillation Proximity Assay. Conditions: SPA, biotinylated Peptide 830, 1 μM ATP, 20 nM His-tagged mAur2. The procedure: (§1) Using a Scintillation Proximity Assay (SPA) format, the murine Aurora Kinase 1 (mAur1) and murine Aurora Kinase 2 (mAur2) biochemical assay measures the ability of mAur2 to phosphorylate the substrate, biotinylated Peptide 830 (DRT, Protein Sciences). Once radiolabeled by the enzyme, the biotinylated substrate is captured on streptavidin-coated SPA beads and the radioactivity, in proximity to the SPA beads, is measured. For the generation of IC50 curves, the reaction was performed in 96-well isoplates (Wallac 1450-514) under the following conditions: a 10 mM stock solution of compound (in 100% dimethylsulfoxide; DMSO) was diluted 10 fold in 100% DMSO. Compounds were then serially diluted, 1:5, for an eight point dose curve, in 100% DMSO. A volume of 1 μL of the diluted compound was added to the reaction buffer that consisted of 25 mM HEPES pH 7.5, 1 mM MnCl2, 1 mM MgCl2, 1 mM DTT, 0.01% Tween20. A mixture with a final concentration per well of 1 μM cold ATP, 0.1 μCi ^33P-ATP (Amersham AH9968) and 1 μM biotinylated Peptide 830 was then added. The reaction was initiated with the addition of either recombinant, GST-tagged mAur 1 (amino acids 67-345) that was co-expressed with human INCENP (amino acids 704-919) (DRT, Protein Sciences) at a final concentration of 12 nM or N-terminal His-tagged mAur2 (amino acids 98-395; DRT, Protein Sciences) at a final concentration of 20 nM. The final reaction volume in each well was 100 μL and the final compound concentration ranged from 10 μM-[…] in 1% DMSO. The reaction mixture was allowed to incubate for 1-2 hours with gentle agitation at 25° C. To terminate the reaction, streptavidin-coated SPA beads (Amersham RPNQ0007; 50 μL of 0.5 mg beads dissolved in 165 mM EDTA) were then added to each well and incubation proceeded for an additional 15 minutes at 25° C. The plate was then centrifuged for ten minutes at 2000 rpm. Phosphorylation of the peptide substrate was measured using a Wallac 1450 Microbeta Plus Liquid Scintillation Counter.
A general note: In a scintillation proximity assay essentially only radioactivity close to the scintillant gives light.

For test [2], the target named is T2, murine Aurora Kinase 1 (mAur1) (Mus musculus, UniProt O70126).
T2 construct: recombinant, GST-tagged mAur 1 (amino acids 67-345) that was co-expressed with human INCENP; GST; made in house
T2 sequence (O70126 67-345): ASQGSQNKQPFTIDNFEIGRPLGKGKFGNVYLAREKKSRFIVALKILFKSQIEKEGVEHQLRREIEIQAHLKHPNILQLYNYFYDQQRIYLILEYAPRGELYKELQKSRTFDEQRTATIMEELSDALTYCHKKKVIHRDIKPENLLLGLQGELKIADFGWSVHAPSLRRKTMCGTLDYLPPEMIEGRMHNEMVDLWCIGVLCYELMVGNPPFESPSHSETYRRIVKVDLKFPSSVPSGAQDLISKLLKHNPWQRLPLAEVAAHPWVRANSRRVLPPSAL
T2 sequence (Q9NQS7 704-918 partner): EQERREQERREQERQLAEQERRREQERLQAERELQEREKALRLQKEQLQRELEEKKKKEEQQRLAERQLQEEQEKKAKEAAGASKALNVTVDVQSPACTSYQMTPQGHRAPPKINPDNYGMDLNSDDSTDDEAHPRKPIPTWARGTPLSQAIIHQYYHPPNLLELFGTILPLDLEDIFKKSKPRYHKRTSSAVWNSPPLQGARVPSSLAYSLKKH
Kind of test: murine Aurora Kinase 1 (mAur1) biochemical Scintillation Proximity Assay. Conditions: SPA, biotinylated Peptide 830, 1 μM ATP, 12 nM GST-tagged mAur 1 co-expressed with human INCENP. The procedure: as §1

Broadly, the pIC50 is the IC50 on a negative log10 scale, so that one unit is a factor of ten. High values mean a low IC50, low ones a high IC50. Turning to `Nc1ncnn2cc(C(=O)NCC(F)(F)F)c(-c3ccc(Nc4nc5ccccc5[nH]4)cc3)c12` [Example 1, 4-amino-5-[4-(1H-benzimidazol-2-ylamino)phenyl]-N-(2,2,2-trifluoroethyl)pyrrolo[2,1-f][1,2,4]triazine-6-carboxamide], the pIC50 in test [1] and in test [2] was more than 7.00 each time.
In the case of `Nc1ncnn2cc(C(=O)NCC(F)(F)F)c(-c3ccc(Nc4nc5cc(F)cc(F)c5[nH]4)cc3)c12` [Example 6, 4-amino-5-{4-[(5,7-difluoro-1H-benzimidazol-2-yl)amino]phenyl}-N-(2,2,2-trifluoroethyl)pyrrolo[2,1-f][1,2,4]triazine-6-carboxamide], the pIC50 in test [1] and in test [2] was more than 7.00 throughout.
For the compound `COc1ccc2nc(Nc3ccc(-c4c(C(=O)NCC(F)(F)F)cn5ncnc(N)c45)cc3)[nH]c2c1` [Example 8, 4-amino-5-{4-[(6-methoxy-1H-benzimidazol-2-yl)amino]phenyl}-N-(2,2,2-trifluoroethyl)pyrrolo[2,1-f][1,2,4]triazine-6-carboxamide], the pIC50 in test [1] and in test [2] was more than 7.00 throughout.
Turning to `Nc1ncnn2cc(C(=O)NCC(F)(F)F)c(-c3ccc(Nc4nc5ccc(Br)cc5[nH]4)cc3)c12` [Example 9, 4-amino-5-{4-[(6-bromo-1H-benzimidazol-2-yl)amino]phenyl}-N-(2,2,2-trifluoroethyl)pyrrolo[2,1-f][1,2,4]triazine-6-carboxamide], the pIC50 in test [1] and in test [2] was more than 7.00 in each case.
`Nc1ncnn2cc(C(=O)NCC(F)(F)F)c(-c3ccc(Nc4nc5cc(F)c(F)cc5[nH]4)cc3)c12` [Example 14, 4-amino-5-{4-[(5,6-difluoro-1H-benzimidazol-2-yl)amino]phenyl}-N-(2,2,2-trifluoroethyl)pyrrolo[2,1-f][1,2,4]triazine-6-carboxamide]: the pIC50 in test [1] and in test [2] was more than 7.00 in each case.
On to `Nc1ncnn2cc(C(=O)NCC(F)(F)F)c(-c3ccc(Nc4nc5cscc5[nH]4)cc3)c12` [Example 16, 4-amino-5-[4-(1H-thieno[3,4-d]imidazol-2-ylamino)phenyl]-N-(2,2,2-trifluoroethyl)pyrrolo[2,1-f][1,2,4]triazine-6-carboxamide], for which the pIC50 in test [1] and in test [2] was more than 7.00 in each case.
For `Cc1cccc2nc(Nc3ccc(-c4c(C(=O)NCC(F)(F)F)cn5ncnc(N)c45)cc3)[nH]c12` [Example 22, 4-amino-5-{4-[(7-methyl-1H-benzimidazol-2-yl)amino]phenyl}-N-(2,2,2-trifluoroethyl)pyrrolo[2,1-f][1,2,4]triazine-6-carboxamide], the pIC50 in test [1] and in test [2] was more than 7.00 each time.
For the compound `Nc1ncnn2cc(C(=O)NCC(F)(F)F)c(-c3ccc(Nc4nc5ccc([N+](=O)[O-])cc5[nH]4)cc3)c12` [Example 23, 4-amino-5-{4-[(6-nitro-1H-benzimidazol-2-yl)amino]phenyl}-N-(2,2,2-trifluoroethyl)pyrrolo[2,1-f][1,2,4]triazine-6-carboxamide], the pIC50 in test [1] and in test [2] was more than 7.00 in each case.
Consider `Nc1ncnn2cc(C(=O)NCC(F)(F)F)c(-c3ccc(Nc4nc5cc(I)cnc5[nH]4)cc3)c12` [Example 25, 4-amino-5-{4-[(6-iodo-3H-imidazo[4,5-b]pyridin-2-yl)amino]phenyl}-N-(2,2,2-trifluoroethyl)pyrrolo[2,1-f][1,2,4]triazine-6-carboxamide], for which the pIC50 in test [1] and in test [2] was more than 7.00 in each case.
In the case of `Nc1ncnn2cc(C(=O)NCC(F)(F)F)c(-c3ccc(Nc4nc5ccc(Cl)nc5[nH]4)cc3)c12` [Example 26, 4-amino-5-{4-[(5-chloro-3H-imidazo[4,5-b]pyridin-2-yl)amino]phenyl}-N-(2,2,2-trifluoroethyl)pyrrolo[2,1-f][1,2,4]triazine-6-carboxamide], the pIC50 in test [1] and in test [2] was more than 7.00 each time.
`Nc1ncnn2cc(C(=O)NCC(F)(F)F)c(-c3ccc(Nc4nc5ccc(Oc6ccccc6F)c(F)c5[nH]4)cc3)c12` [Example 39, 4-amino-5-(4-{[7-fluoro-6-(2-fluorophenoxy)-1H-benzimidazol-2-yl]amino}phenyl)-N-(2,2,2-trifluoroethyl)pyrrolo[2,1-f][1,2,4]triazine-6-carboxamide]: the pIC50 in test [1] and in test [2] was more than 7.00 throughout.
In the case of `Nc1ncnn2cc(C(=O)NCC(F)(F)F)c(-c3ccc(Nc4nc5ccc(Oc6cccc(F)c6)c(F)c5[nH]4)cc3)c12` [Example 40, 4-amino-5-(4-{[7-fluoro-6-(3-fluorophenoxy)-1H-benzimidazol-2-yl]amino}phenyl)-N-(2,2,2-trifluoroethyl)pyrrolo[2,1-f][1,2,4]triazine-6-carboxamide], the pIC50 in test [1] and in test [2] was more than 7.00 in each case.
As for `Cc1cccc(Oc2ccc3nc(Nc4ccc(-c5c(C(=O)NCC(F)(F)F)cn6ncnc(N)c56)cc4)[nH]c3c2F)c1` [Example 42, 4-amino-5-(4-{[7-fluoro-6-(3-methylphenoxy)-1H-benzimidazol-2-yl]amino}phenyl)-N-(2,2,2-trifluoroethyl)pyrrolo[2,1-f][1,2,4]triazine-6-carboxamide], the pIC50 in test [1] and in test [2] was more than 7.00 each time.
With `Cc1ncnc2[nH]c(Nc3ccc(-c4c(C(=O)NCC(F)(F)F)cn5ncnc(N)c45)cc3)nc12` [Example 45, 4-amino-5-{4-[(6-methyl-9H-purin-8-yl)amino]phenyl}-N-(2,2,2-trifluoroethyl)pyrrolo[2,1-f][1,2,4]triazine-6-carboxamide], the pIC50 in test [1] and in test [2] was more than 7.00 in each case.
For the compound `Nc1ncnn2cc(C(=O)NCC(F)(F)F)c(-c3ccc(Nc4nc5ccc(NC6CCCCC6)nc5[nH]4)cc3)c12` [Example 48, 4-amino-5-(4-{[5-(cyclohexylamino)-3H-imidazo[4,5-b]pyridin-2-yl]amino}phenyl)-N-(2,2,2-trifluoroethyl)pyrrolo[2,1-f][1,2,4]triazine-6-carboxamide], the pIC50 in test [1] and in test [2] was more than 7.00 in each case.
Regarding `Cc1ccc(Oc2ccc3nc(Nc4ccc(-c5c(C(=O)NCC(F)(F)F)cn6ncnc(N)c56)cc4)[nH]c3n2)cc1C` [Example 49, 4-amino-5-(4-{[5-(3,4-dimethylphenoxy)-3H-imidazo[4,5-b]pyridin-2-yl]amino}phenyl)-N-(2,2,2-trifluoroethyl)pyrrolo[2,1-f][1,2,4]triazine-6-carboxamide], the pIC50 in test [1] and in test [2] was more than 7.00 throughout.
For `Nc1ncnn2cc(C(=O)NCC(F)(F)F)c(-c3ccc(Nc4nc5ccc(Sc6cccc(F)c6)nc5[nH]4)cc3)c12` [Example 50, 4-amino-5-[4-({5-[(3-fluorophenyl)thio]-3H-imidazo[4,5-b]pyridin-2-yl}amino)phenyl]-N-(2,2,2-trifluoroethyl)pyrrolo[2,1-f][1,2,4]triazine-6-carboxamide], the negative logarithm of the IC50 (pIC50) in test [1] and in test [2] was more than 7.00 throughout.
For `CCCNc1ccc2nc(Nc3ccc(-c4c(C(=O)NCC(F)(F)F)cn5ncnc(N)c45)cc3)[nH]c2n1` [Example 55, 4-amino-5-(4-{[5-(propylamino)-3H-imidazo[4,5-b]pyridin-2-yl]amino}phenyl)-N-(2,2,2-trifluoroethyl)pyrrolo[2,1-f][1,2,4]triazine-6-carboxamide], the pIC50 in test [1] and in test [2] was more than 7.00 throughout.
Regarding `Nc1ncnn2cc(C(=O)NCC(F)(F)F)c(-c3ccc(Nc4nc5cc6c(cc5[nH]4)OC(F)(F)O6)c(F)c3)c12` [Example 60, 4-amino-5-{4-[(2,2-difluoro-5H-[1,3]dioxolo[4,5-f]benzimidazol-6-yl)amino]-3-fluorophenyl}-N-(2,2,2-trifluoroethyl)pyrrolo[2,1-f][1,2,4]triazine-6-carboxamide], the pIC50 in test [1] and in test [2] was more than 7.00 throughout.
